Patent US9682961B2, “Quinazoline derivative” (CARNA BIOSCIENCES, INC., priority 2013, dated 2017)

Assays:
[1] = tested on: Wnt/β-catenin signaling pathway; assay: TCF-luciferase reporter gene assay (Wnt-3a stimulated HEK 293 cells); assay type: cell-based; conditions: Homo sapiens, HEK293, Wnt-3a stimulation, read-out: Inhibitory activity against the Wnt/β-catenin signaling pathway
Description: Evaluation of inhibitory activity of the compounds of the present invention against the Wnt/β-catenin signaling pathway was performed by evaluating the inhibitory activity of the compounds of the present invention against the Wnt/β-catenin signaling pathway activated by the Wnt-3a ligand using a commercially available TCF-luciferase reporter gene assay system.
In a T75 flask, HEK 293 cells (ATCC No. CRL-1573) were added to a DMEM medium (manufactured by NACALAI TESQUE, INC., No. 08459-35) supplemented with 10% FBS (AusGeneX PTY LTD.) and 1% Penicillin/Streptomycin (NACALAI TESQUE, INC.). The cells in the flask were cultured in a 5% CO2 incubator.
The cultured HEK 293 cells were diluted with a DMEM medium supplemented with only 10% FBS so as to have a cell concentration of 2×10^5 cells/mL, and 100 μL each of the diluted cells were seeded into respective wells of 96-well plates (PerkinElmer Inc., ViewPlate No. 6005181), followed by culturing overnight in the 5% CO2 incubator. To an OptiMEM medium (Invitrogen® No. 11058), pGL4.49 [luc2p/TCF-LEF-RE/Hygro] plasmid DNA (Promega Corporation) and FuGENE® HD (Promega No. E2691) were added so as to have concentrations of 1 μg/mL and 3 μg/mL, respectively, to prepare a transfection solution as described in the protocol attached to the reagent. To the respective wells containing the HEK 293 cells cultured overnight, 100 μL each of the transfection solution was added gently, followed by culturing overnight in the 5% CO2 incubator to perform transfection.
To a DMEM medium, 0.5% charcoal/dextran treated Fetal Bovine Serum (Thermo Scientific No. SH30068.02) and LiCl (Sigma-Aldrich No. L9650) were added to prepare a LiCl-containing medium (final concentration of LiCl: 10 mM). The medium in the respective wells of the HEK 293 cells cultured overnight and transfected with a reporter gene was removed by decantation. The LiCl-containing medium (90 μL) was added gently to each well, followed by culturing overnight in the 5% CO2 incubator.
A DMSO stock solution of the compound to be tested was diluted 100-fold with a LiCl-containing medium so as to prepare a solution of the compound to be tested, which is 10 times the test concentration. Further, Recombinant Mouse Wnt-3a (R&D Systems, Inc. #1324-WN) was dissolved in a 0.1% BSA-PBA solution so as to have a concentration of 40 μg/mL, and the resultant solution was diluted with a LiCl-containing medium so as to have a concentration of 100 ng/mL, to prepare a Wnt-3a solution. To each well of the HEK 293 cells cultured overnight in the LiCl-containing medium, 10 μL each of the solution of the compound to be tested was added, followed by culturing in the 5% CO2 incubator for 2 hours (the final concentration of the compound to be tested: 3-0.03 μM). Thereafter, 10 μL each of the Wnt-3a solution was added to the respective wells, followed by further culturing for 5 hours.
Using ONE-Glo™ Luciferase Assay System (Promega Corporation, No. E6110), the luciferase activity of the cells in the wells was measured by a microplate reader (Synergy H1, BioTek Instruments, Inc.) An IC50 value was calculated from the luminescence intensity of each compound concentration, supposing that the luminescence intensity of a group with no addition of the compound and with Wnt-3a stimulation was 100%, and that the luminescence intensity of a group with no addition of the compound and with no Wnt-3a stimulation was 0%.

[2] = tested on: AXIN2 gene expression; assay: Expression level of Wnt/β-catenin target gene AXIN2 by real-time PCR in HCT116 cells; assay type: cell-based, human; conditions: 10 and 3 μM, 24 hours
Description: Effects of the compound of the present invention on Wnt/β-catenin signaling activity were studied using the real-time PCR method as well as using as an indicator changes in expression levels of target genes of the Wnt/β-catenin signaling pathway. To a RPMI 1640 medium (NACALAI TESQUE, INC.), 10% FBS (AusGeneX PTY LTD.) and 1% Penicillin/Streptomycin (NACALAI TESQUE, INC.) were added to prepare a cell culture medium (hereinafter referred to as medium 1). In a T75 flask, HCT116 cells (ATCC No. CCL-247) were added to the medium 1. The cells in the flask were cultured in the 5% CO2 incubator. The cultured HCT116 cells were diluted with the medium 1 so as to have a cell concentration of 1.1×10^5 cells/mL. Into the T75 flask, 13.5 mL of the diluted cells was seeded, followed by culturing overnight in the 5% CO2 incubator. […] Total RNA concentration was measured by a microspectrophotometer (Thermo Fisher Scientific Inc., Nano Drop ND-1000). […] The results were calculated as the expression ratio of the target gene to the endogenous control gene (β-Actin) by the comparative Ct method using a DMSO group as a reference.

IC50 [1]: < 300 nM
SMILES: O[C@H]1CC[C@@H](Oc2cccc3cnc(Nc4ccc5nc[nH]c5c4)nc23)CC1 [Example 1, cis-4-({2-[(1H-benzo[d]imidazol-6-yl)amino]quinazolyn-8-yl}oxy)cyclohexanol]
AXIN2 gene expression [2]: inhibited the expression of AXIN2 and c-MYC
